Consider one substance from patent publication US5840699A, “Peptide derivatives” (Teikoku Hormone Mfg. Co. Ltd., priority 1995, dated 1998).

This test relates to mouse leukemia P388 cells. The experiment in a line: Antitumor activity (increase in life-span) in mice transplanted with mouse leukemia P388 cells. The test is classed as in vivo. To be noted: relative value of percent increase in life-span (ILS), dolastatin 10 ILS regarded as 1; P388 cells (10^6 per mouse) in abdominal cavity of CDF1 mice; drug intraperitoneally on first and fifth day; observed for 60 days. The protocol:
0.1 ml (10^6 cells per mouse) each of mouse leukemia P388 cells was transplanted into the abdominal cavity of 7-weeks-old CDF1 mice. […] Then, the percent increase in life-span (ILS) was calculated from the results of observation according to the following equation. In the following equation, T designates the median number of days for which the mice of the drug-treated group survived, and C designates the median number of days for which the mice of the control group survived. [formula]
The antitumor activity of each drug is expressed as a relative value based on the antitumor activity of dolastatin 10 for which ILS is regarded as 1.

Substance dolastatin 10 returned an Antitumor activity of 1.
